# Results published in ChEMBL document CHEMBL4251678, “Coculture of Two Developmental Stages of a Marine-Derived Aspergillus alliaceus Results in the Production of the Cytotoxic Bianthrone Allianthrone A” (J Nat Prod, 2018).
# Active and inactive are the calls of the source. The rule behind the calls is not given here.
# What was measured:
# MCF7 [1] = test: Cytotoxicity against human MCF7 cells assessed as cell survival at 250 uM after 48 hrs by MTT assay; type: functional; details: MCF7, 48 h, read-out: Survival
# PC-3 [2] = test: Cytotoxicity against human PC3 cells assessed as cell survival at 250 uM after 48 hrs by MTT assay; type: functional; details: PC-3, 48 h, read-out: Survival
# A549 [3] = test: Cytotoxicity against human A549 cells assessed as cell survival at 250 uM after 48 hrs by MTT assay; type: functional; details: A549, 48 h, read-out: Survival
# SK-MEL-5 [4] = test: Cytotoxicity against human SK-MEL-5 cells assessed as cell survival at 250 uM after 48 hrs by MTT assay; type: functional; details: SK-MEL-5, 48 h, read-out: Survival
# HCT-116 [5] = test: Cytotoxicity against human HCT116 cells assessed as cell survival at 250 uM after 48 hrs by MTT assay; type: functional; details: HCT-116, 48 h, read-out: Survival
# Candida albicans = test: Antifungal activity against Candida albicans ATCC 90027 at 20.5 to 43.5 ug/ml by microbroth method; type: functional, organism-based
# SK-MEL-5 [6] = test: Cytotoxicity against human SK-MEL-5 cells assessed as reduction in cell viability after 48 hrs by MTT assay; type: functional, cell-based; details: SK-MEL-5, 48 h
# Escherichia coli = test: Antimicrobial activity against Escherichia coli ATCC 8739 at 20.5 to 43.5 ug/ml by microbroth method; type: functional, organism-based
# Bacillus subtilis = test: Antimicrobial activity against Bacillus subtilis ATCC 49343 at 20.5 to 43.5 ug/ml by microbroth method; type: functional, organism-based
# HCT-116 [7] = test: Cytotoxicity against human HCT116 cells assessed as reduction in cell viability after 48 hrs by MTT assay; type: functional, cell-based; details: HCT-116, 48 h
# Staphylococcus aureus = test: Antimicrobial activity against Staphylococcus aureus ATCC 25923 at 20.5 to 43.5 ug/ml by microbroth method; type: functional, organism-based
# PC-3 [8] = test: Cytotoxicity against human PC3 cells assessed as reduction in cell viability after 48 hrs by MTT assay; type: functional, cell-based; details: PC-3, 48 h
# A549 [9] = test: Cytotoxicity against human A549 cells assessed as reduction in cell viability after 48 hrs by MTT assay; type: functional, cell-based; details: A549, 48 h
# Enterococcus faecium = test: Antimicrobial activity against Enterococcus faecium ATCC 49032 at 20.5 to 43.5 ug/ml by microbroth method; type: functional, organism-based
# Pseudomonas aeruginosa = test: Antimicrobial activity against Pseudomonas aeruginosa ATCC 15442 at 20.5 to 43.5 ug/ml by microbroth method; type: functional, organism-based
# MCF7 [10] = test: Cytotoxicity against human MCF7 cells assessed as reduction in cell viability after 48 hrs by MTT assay; type: functional, cell-based; details: MCF7, 48 h
SMILES,viability at 250 µM (MCF7 [1]) [%],viability at 250 µM (PC-3 [2]) [%],viability at 250 µM (A549 [3]) [%],viability at 250 µM (SK-MEL-5 [4]) [%],viability at 250 µM (HCT-116 [5]) [%],Activity (Candida albicans),IC50 (SK-MEL-5 [6]) [µM],Activity (Escherichia coli),Activity (Bacillus subtilis),IC50 (HCT-116 [7]) [µM],Activity (Staphylococcus aureus),IC50 (PC-3 [8]) [µM],IC50 (A549 [9]) [µM],Activity (Enterococcus faecium),Activity (Pseudomonas aeruginosa),IC50 (MCF7 [10]) [µM]
COc1cc([C@@H]2c3cc4c(cc3[C@@H](O[C@@H]3O[C@@H]5CO[C@@H](C)O[C@H]5[C@H](O)[C@H]3O)[C@H]3COC(=O)[C@H]23)OCO4)cc(OC)c1O [ETOPOSIDE],43.8,45.5,19.7,26.4,11.6,,,,,,,,,,,
COc1cc2c(c(O)c1Cl)C(=O)c1c(O)cc(C[C@H](C)O)cc1[C@@H]2[C@H]1c2cc(C[C@H](C)O)cc(O)c2C(=O)c2c1cc(OC)c(Cl)c2O,,,,,,inactive,19.7,inactive,inactive,13.7,inactive,> 20,> 20,inactive,inactive,> 20
COc1cc2c(c(O)c1Cl)C(=O)c1c(O)cc(C[C@H](C)O)cc1[C@H]2[C@@H]1c2cc(C[C@H](C)O)cc(O)c2C(=O)c2c1cc(OC)c(Cl)c2O,,,,,,inactive,12.2,inactive,inactive,10.5,inactive,> 20,> 20,inactive,inactive,> 20
COc1cc2c(c(O)c1Cl)C(=O)c1c(O)cc(C[C@H](C)O)cc1[C@H]2[C@H]1c2cc(C[C@H](C)O)cc(O)c2C(=O)c2c1cc(OC)c(Cl)c2O,,,,,,inactive,11,inactive,inactive,9,inactive,> 20,> 20,inactive,inactive,> 20
